Measurements taken from ChEMBL document CHEMBL5214926, “Recent contribution of medicinally active 2-aminothiophenes: A privileged scaffold for drug discovery” (Eur J Med Chem, 2022).
≈ marks a conversion by molar mass, not a printed value.

Columns and labels:
Leishmania amazonensis = assay: Anti-promastigote activity against Leishmania amazonensis (IFLA/BR/67/PH8) assessed as promastigote growth inhibition incubated for 72 hrs by microscopic analysis; assay type: functional, organism-based
[1] = test system: Mycobacterium tuberculosis; assay: Antimycobacterial activity against Mycobacterium tuberculosis H37Ra incubated for 8 to 12 days by XTT reduction menadione assay; assay type: functional; conditions: time 8-12 day
NCI-H1299 = assay: Cytotoxicity against human NCI-H1299 cells assessed as cell growth inhibition incubated for 48 hrs by SRB assay; assay type: functional, cell-based; conditions: NCI-H1299, 48 h
Epidermophyton floccosum = assay: Antifungal activity against Epidermophyton floccosum 6999 assessed as fungal growth inhibition by spectrophotometry; assay type: functional
Trichophyton rubrum = assay: Antifungal activity against Trichophyton rubrum 6753 assessed as fungal growth inhibition by spectrophotometry; assay type: functional
[2] = Antiproliferative activity against human U-87 MG cells assessed as cell growth inhibition by MTT assay; assay type: functional, cell-based, U-87MG ATCC
NCI-H460 = assay: Antiproliferative activity against human NCI-H460 cells assessed as cell growth inhibition by MTT assay
SMMC-7721 = assay: Antiproliferative activity against human SMMC-7721 cells assessed as cell growth inhibition by MTT assay
MKN-45 = assay: Antiproliferative activity against human MKN-45 cells assessed as cell growth inhibition by MTT assay
A549 = assay: cells; conditions: Homo sapiens
Description: Antiproliferative activity against human A549 cells assessed as cell growth inhibition by MTT assay

HT-29 = assay: cells; conditions: Homo sapiens
Description: Antiproliferative activity against human HT-29 cells assessed as cell growth inhibition by MTT assay

HepG2 [3] = assay: Cytotoxicity against human HepG2 cells assessed as cell growth inhibition incubated for 48 hrs by MTT assay; assay type: functional, cell-based; conditions: Homo sapiens, HepG2, 48 h
MCF7 [4] = assay: Cytotoxicity against human MCF7 cells assessed as cell growth inhibition incubated for 48 hrs by MTT assay; assay type: functional, cell-based; conditions: MCF7, 48 h
Bacillus subtilis [5] = assay: Antibacterial activity against Bacillus subtilis NCIM 2079 assessed as reduction in bacterial growth incubated for 8 hrs by absorbance based assay; assay type: functional, organism-based; conditions: NCIM 2079, 8 h
Escherichia coli = assay: Antibacterial activity against Escherichia coli NCIM 2688 assessed as bacterial growth inhibition incubated for 8 hrs by absorbance based assay; assay type: functional
Pseudomonas aeruginosa = assay: Antibacterial activity against Pseudomonas aeruginosa NCIM 2036 assessed as bacterial growth inhibition incubated for 8 hrs by absorbance based assay; assay type: functional
Bacillus subtilis [6] = assay: Antibacterial activity against Bacillus subtilis NCIM 2079 assessed as bacterial growth inhibition incubated for 8 hrs by absorbance based assay; assay type: functional
Staphylococcus aureus [7] = assay: Antibacterial activity against Staphylococcus aureus NCIM 2010 assessed as reduction in bacterial growth incubated for 8 hrs by absorbance based assay; assay type: functional, organism-based; conditions: NCIM 2010, 8 h
Staphylococcus aureus [8] = assay: Antibacterial activity against Staphylococcus aureus NCIM 2010 assessed as bacterial growth inhibition incubated for 8 hrs by absorbance based assay; assay type: functional
[9] = Inhibition of CaCC (unknown origin) current potentiation; design: species or system Homo sapiens
HepG2 [10] = assay: Cytotoxicity against human HepG2 cells assessed as cell growth inhibition incubated for 2 days by MTT assay; assay type: functional, cell-based; conditions: HepG2, 48 h
PC-3 = assay: Cytotoxicity against human PC-3 cells assessed as cell growth inhibition incubated for 2 days by MTT assay; assay type: functional, cell-based; conditions: PC-3, 48 h
MCF7 [11] = assay: Cytotoxicity against human MCF7 cells assessed as cell growth inhibition incubated for 2 days by MTT assay; assay type: functional, cell-based; conditions: MCF7, 48 h
Trichophyton tonsurans [12] = assay: Antifungal activity against Trichophyton tonsurans 700 assessed as fungal growth inhibition by spectrophotometry; assay type: functional
Trichophyton tonsurans [13] = assay: Antifungal activity against Trichophyton tonsurans 2822 assessed as fungal growth inhibition by spectrophotometry; assay type: functional
[14] = test system: Trichophyton mentagrophytes; assay: Antifungal activity against Trichophyton mentagrophytes 5432 assessed as fungal growth inhibition by spectrophotometry; assay type: functional
Heyndrickxia coagulans = assay: Antibacterial activity against Bacillus coagulans assessed as bacterial growth inhibition; assay type: functional
Staphylococcus coagulans = assay: Antimicrobial activity against Staphylococcus coagulans assessed as microbial growth inhibition incubated for 24 hrs by disc diffusion assay; assay type: functional
Enterococcus faecalis = assay: Antibacterial activity against Enterococcus faecalis assessed as bacterial growth inhibition; assay type: functional
[15] = Leishmania amazonensis, IFLA/BR/67/PH8, 72 h

COc1ccc2nc3cc(Cl)ccc3c(Nc3sc4c(c3C(N)=O)CCCC4)c2c1 showed an EC50 (Leishmania amazonensis; [15]) of 31.8 µM.

CO[C@H]1/C=C/O[C@@]2(C)Oc3c(C)c(O)c4c(O)c(c(/C=N/N5CCN(C)CC5)c(O)c4c3C2=O)NC(=O)/C(C)=C\C=C\[C@H](C)[C@H](O)[C@@H](C)[C@@H](O)[C@@H](C)[C@H](OC(C)=O)[C@@H]1C [RIFAMPIN] gave an MIC [1] of 0.042 µg/mL (≈ 0.051 µM).

With Cc1cc(C)c2c(NCC(=O)Nc3sc4c(c3C#N)CCCC4)n[nH]c2n1 the IC50 (NCI-H1299) was 13.7 µM.

For COc1ccc(/C=N/NCC(=O)Nc2sc3c(c2C#N)CCCC3)cc1, the IC50 (NCI-H1299) was 18.5 µM.

CCOC(=O)c1c(Nc2c3ccc(Cl)cc3nc3ccc(OC)cc23)sc2c1CCCCC2 showed an EC50 (Leishmania amazonensis; [15]) of 26.6 µM.

Compound N#Cc1ccsc1/N=C/c1cccc([N+](=O)[O-])c1 has an MIC (Epidermophyton floccosum) of 64 µg/mL (≈ 249 µM) and an MIC (Trichophyton rubrum) of 128 µg/mL (≈ 498 µM).

COc1cc2c(Oc3ccc(NC(=O)C4(C(=O)Nc5ccc(F)cc5)CC4)cc3F)ccnc2cc1OCCCN1CCOCC1 [FORETINIB] gave an IC50 [2] of 0.9 µM.

CCOC(=O)c1c(NC(=O)CC#N)sc(C(=O)Nc2ccc(Cl)cc2)c1-c1ccccc1 gave an IC50 (NCI-H460) of 0.43 µM, an IC50 (SMMC-7721) of 0.73 µM and an IC50 (MKN-45) of 0.39 µM. It also gave an IC50 (A549) of 0.6 µM, an IC50 (HT-29) of 0.62 µM and an IC50 [2] of 0.43 µM.

In the case of CCOC(=O)c1c(N)sc(C(=O)Nc2ccccc2)c1-c1ccccc1, the IC50 (NCI-H460) is reported as 8.59 µM, the IC50 (SMMC-7721) is reported as 8.58 µM and the IC50 (MKN-45) is reported as 8.09 µM. The IC50 (A549) was 6.8 µM, the IC50 (HT-29) was 7.49 µM and the IC50 [2] was 7.42 µM.

CC(=O)Nc1sc(C(C)=O)c(Nc2ccc(C(C)=O)cc2)c1C#N showed an IC50 (HepG2 [3]) of 66.2 µM and an IC50 (MCF7 [4]) of 64.6 µM.

CC(=O)c1ccc(Nc2c(C(=O)/C=C/c3ccccc3)sc(N)c2C#N)cc1 showed an IC50 (HepG2 [3]) of 73.6 µM and an IC50 (MCF7 [4]) of 67.5 µM.

CC1=C(C(=O)O)N2C(=O)[C@@H](NC(=O)[C@H](N)c3ccccc3)[C@H]2SC1 [CEPHALEXIN ANHYDROUS] gave an EC50 (Bacillus subtilis [5]) of 0.25 µM, an MIC (Escherichia coli) of 4.94 µg/mL (≈ 14.2 µM) and an MIC (Pseudomonas aeruginosa) of over 10 µg/mL. The MIC (Bacillus subtilis [6]) was 1.87 µg/mL (≈ 5.38 µM), the EC50 (Staphylococcus aureus [7]) was 0.77 µM and the MIC (Staphylococcus aureus [8]) was 2.39 µg/mL (≈ 6.88 µM).

COC(=O)c1c(NC(=O)Cn2cc(CNC34CC5CC(CC(C5)C3)C4)nn2)sc2c1CCC(C)C2 (configuration not stated) gave an IC50 [9] of 5.4 µM.

For CC(C)(C)C1CCc2c(sc(NC(=O)C3CCCO3)c2C(=O)O)C1 (configuration not stated), the IC50 [9] was 1.7 µM.

CCOC(=O)c1c(NC(=O)/C=C/c2ccc(O)cc2)sc2c1CCCC2 gave an IC50 (HepG2 [10]) of 8.3 µM, an IC50 (PC-3) of 6.29 µM and an IC50 (MCF7 [11]) of 8.27 µM.

With CC1(C)S[C@@H]2[C@H](NC(=O)[C@H](N)c3ccc(O)cc3)C(=O)N2[C@H]1C(=O)O [AMOXICILLIN] the EC50 (Bacillus subtilis [5]) was 0.15 µM, the MIC (Escherichia coli) was 0.32 µg/mL (≈ 0.876 µM) and the MIC (Pseudomonas aeruginosa) was over 10 µg/mL. For the same compound, the MIC (Bacillus subtilis [6]) was 0.32 µg/mL (≈ 0.876 µM), the EC50 (Staphylococcus aureus [7]) was 0.15 µM and the MIC (Staphylococcus aureus [8]) was 0.29 µg/mL (≈ 0.794 µM).

Work on COC(=O)c1c(NC(=O)N[C@@H](C(=O)N[C@@H]2C(=O)N3[C@@H]2SC(C)(C)[C@@H]3C(=O)O)c2ccc(O)cc2)sc2c1CCCCCC2 yielded an EC50 (Bacillus subtilis [5]) of 0.25 µM, an MIC (Escherichia coli) of over 10 µg/mL and an MIC (Pseudomonas aeruginosa) of over 10 µg/mL. The MIC (Bacillus subtilis [6]) was 2.57 µg/mL (≈ 4.07 µM), the EC50 (Staphylococcus aureus [7]) was 0.16 µM and the MIC (Staphylococcus aureus [8]) was 0.28 µg/mL (≈ 0.444 µM). The MIC [1] was over 50 µg/mL.

In the case of N#Cc1ccsc1/N=C/c1c[nH]c2cccc([N+](=O)[O-])c12, the MIC (Epidermophyton floccosum) is reported as 1020 µg/mL (≈ 3460 µM), the MIC (Trichophyton rubrum) is reported as 64 µg/mL (≈ 216 µM) and the MIC (Trichophyton tonsurans [12]) is reported as 128 µg/mL (≈ 432 µM). It also gave an MIC (Trichophyton tonsurans [13]) of 512 µg/mL (≈ 1730 µM) and an MIC [14] of 512 µg/mL (≈ 1730 µM).

For CC(=O)c1ccc(Nc2c(C(C)=O)sc(N)c2C#N)cc1, the IC50 (HepG2 [3]) was 88.5 µM and the IC50 (MCF7 [4]) was 91.5 µM.

COC(=O)c1ccsc1NC(=O)N[C@@H](C(=O)N[C@@H]1C(=O)N2C(C(=O)O)=C(C)CS[C@H]12)c1ccccc1 gave an EC50 (Bacillus subtilis [5]) of 0.21 µM, an MIC (Escherichia coli) of over 10 µg/mL and an MIC (Pseudomonas aeruginosa) of over 10 µg/mL. The MIC (Bacillus subtilis [6]) was 3.14 µg/mL (≈ 5.92 µM), the EC50 (Staphylococcus aureus [7]) was 0.26 µM and the MIC (Staphylococcus aureus [8]) was 0.75 µg/mL (≈ 1.41 µM). It also gave an MIC [1] of over 50 µg/mL.

Work on COC(=O)c1c(NC(=O)N[C@@H](C(=O)N[C@@H]2C(=O)N3[C@@H]2SC(C)(C)[C@@H]3C(=O)O)c2ccccc2)sc2c1CCCCCC2 yielded an EC50 (Bacillus subtilis [5]) of 0.28 µM, an MIC (Escherichia coli) of over 10 µg/mL and an MIC (Pseudomonas aeruginosa) of over 10 µg/mL. It also gave an MIC (Bacillus subtilis [6]) of 2.3 µg/mL (≈ 3.74 µM), an EC50 (Staphylococcus aureus [7]) of 0.15 µM and an MIC (Staphylococcus aureus [8]) of 0.28 µg/mL (≈ 0.455 µM). It also gave an MIC [1] of 23.3 µg/mL (≈ 37.8 µM).

COc1ccc2nc3cc(Cl)ccc3c(Nc3sc4c(c3C#N)CCCCC4)c2c1 showed an EC50 (Leishmania amazonensis; [15]) of 32.3 µM.

N#Cc1c(NC(=O)c2cc(O)c(O)c(O)c2)sc2c1CCCCC2 showed an MIC (Heyndrickxia coagulans) of 0.15 µg/mL (≈ 0.436 µM), an MIC (Staphylococcus coagulans) of 0.43 µM (≈ 0.148 µg/mL) and an MIC (Enterococcus faecalis) of 0.25 µg/mL (≈ 0.726 µM).

With CCOC(=O)c1c(Nc2c3ccc(Cl)cc3nc3ccc(OC)cc23)sc2c1CCCC2 the EC50 (Leishmania amazonensis) was 26.6 µM and the EC50 (Leishmania amazonensis; [15]) was 51.4 µM.

For COC(=O)c1ccsc1NC(=O)N[C@@H](C(=O)N[C@@H]1C(=O)N2[C@@H]1SC(C)(C)[C@@H]2C(=O)O)c1ccccc1, the EC50 (Bacillus subtilis [5]) was 0.21 µM, the MIC (Escherichia coli) was over 10 µg/mL and the MIC (Pseudomonas aeruginosa) was over 10 µg/mL. For the same compound, the MIC (Bacillus subtilis [6]) was 0.55 µg/mL (≈ 1.03 µM), the EC50 (Staphylococcus aureus [7]) was 0.16 µM and the MIC (Staphylococcus aureus [8]) was 0.28 µg/mL (≈ 0.526 µM). It also gave an MIC [1] of over 50 µg/mL.
